Values after ≈ are worked out from the molar mass of the structure shown.
Tests used:
S. aureus MRO 00013 = experiment: Agar Dilution Method MIC, S. aureus MRO 00013; type: cell-based; conditions: Staphylococcus aureus, MRO00013, Mueller Hinton Agar, 35° Celsius, 20 hours, read-out: Minimum Inhibitory Concentration (MIC in μg/ml)
Description: (§1) Briefly, the compounds of invention were weighed, dissolved in Dimethyl Sulfoxide, serially diluted in the same solvent and then incorporated into molten Mueller Hinton Agar in a petridish before solidification, with each petridish containing a different concentration of a compound.
(§2) The Bacterial Inoculum was prepared by touching the tops of 3 to 5 well isolated bacterial colonies with the same morphological appearance from an 18 hour old culture with an inoculating loop, transfering the growth to a tube containing 5 ml of normal saline and adjusting the turbidity of the saline suspension to 0.5 Macfarland Turbidity Standard equivalent to a bacterial population of 1.5×10^8 colony forming units (CFU) per millilitre of suspension.
(§3) The bacterial inoculum prepared in the above manner was inoculated onto petri dishes containing Mueller Hinton Agar which had earlier been incorporated with different dilutions of the compounds of invention by a Multipoint Inoculator with each inoculum spot containing approximately 1×10^4 colony forming units (CFU) of bacteria.
(§4) The inoculated petridishes were incubated at 35° Celsius in an ambient atmosphere for 20 hours. Petridishes containing different concentrations of Vancomycin and Oxacillin and inoculated with Staphylococcus aureus, Coagulase Negative Staphylococci and Enterococci were incubated for 24 hours.

S. aureus MRO 00055 = experiment: Agar Dilution Method MIC, S. aureus MRO 00055; type: cell-based; conditions: Staphylococcus aureus, MRO00055, Mueller Hinton Agar, 35° Celsius, 20 hours, read-out: Minimum Inhibitory Concentration (MIC in μg/ml)
Description: as §1, §2, §3, §4

S. epidermidis MRO 02046 = experiment: Agar Dilution Method MIC, S. epidermidis MRO 02046; type: cell-based; conditions: Staphylococcus epidermidis, MRO02046, Mueller Hinton Agar, 35° Celsius, 20 hours, read-out: Minimum Inhibitory Concentration (MIC in μg/ml)
Description: as §1, §2, §3, §4

S. aureus MRO 00001 = experiment: Agar Dilution Method MIC, S. aureus MRO 00001; type: cell-based; conditions: Staphylococcus aureus, MRO00001, Mueller Hinton Agar, 35° Celsius, 20 hours, read-out: Minimum Inhibitory Concentration (MIC in μg/ml)
Description: as §1, §2, §3, §4

S. aureus MRO 00003 = experiment: Agar Dilution Method MIC, S. aureus MRO 00003; type: cell-based; conditions: Staphylococcus aureus, MRO00003, Mueller Hinton Agar, 35° Celsius, 20 hours, read-out: Minimum Inhibitory Concentration (MIC in μg/ml)
Description: as §1, §2, §3, §4

S. aureus MRO 00030 = experiment: Agar Dilution Method MIC, S. aureus MRO 00030; type: cell-based; conditions: Staphylococcus aureus, MRO00030, Mueller Hinton Agar, 35° Celsius, 20 hours, read-out: Minimum Inhibitory Concentration (MIC in μg/ml)
Description: as §1, §2, §3, §4

S. aureus MRO 00048 = experiment: Agar Dilution Method MIC, S. aureus MRO 00048; type: cell-based; conditions: Staphylococcus aureus, MRO00048, Mueller Hinton Agar, 35° Celsius, 20 hours, read-out: Minimum Inhibitory Concentration (MIC in μg/ml)
Description: as §1, §2, §3, §4

S. aureus MRO 00059 = experiment: Agar Dilution Method MIC, S. aureus MRO 00059; type: cell-based; conditions: Staphylococcus aureus, MRO00059, Mueller Hinton Agar, 35° Celsius, 20 hours, read-out: Minimum Inhibitory Concentration (MIC in μg/ml)
Description: as §1, §2, §3, §4

E. fecalis MRO 04045 = experiment: Agar Dilution Method MIC, E. fecalis MRO 04045; type: cell-based; conditions: Enterococcus faecalis, MRO04045, Mueller Hinton Agar, 35° Celsius, 20 hours, read-out: Minimum Inhibitory Concentration (MIC in μg/ml)
Description: as §1, §2, §3, §4

E. faecalis ATCC 51299 = experiment: Agar Dilution Method MIC, E. faecalis ATCC 51299; type: cell-based; conditions: Enterococcus faecalis, ATCC51299, Mueller Hinton Agar, 35° Celsius, 20 hours, read-out: Minimum Inhibitory Concentration (MIC in μg/ml)
Description: as §1, §2, §3, §4

E. faecalis ATCC 29212 = experiment: Agar Dilution Method MIC, E. faecalis ATCC 29212; type: cell-based; conditions: Enterococcus faecalis, ATCC29212, Mueller Hinton Agar, 35° Celsius, 20 hours, read-out: Minimum Inhibitory Concentration (MIC in μg/ml)
Description: as §1, §2, §3, §4

S. aureus ATCC 29213 = experiment: Agar Dilution Method MIC, S. aureus ATCC 29213; type: cell-based; conditions: Staphylococcus aureus, ATCC29213, Mueller Hinton Agar, 35° Celsius, 20 hours, read-out: Minimum Inhibitory Concentration (MIC in μg/ml)
Description: as §1, §2, §3, §4

S. aureus ATCC 43300 = experiment: Agar Dilution Method MIC, S. aureus ATCC 43300; type: cell-based; conditions: Staphylococcus aureus, ATCC43300, Mueller Hinton Agar, 35° Celsius, 20 hours, read-out: Minimum Inhibitory Concentration (MIC in μg/ml)
Description: as §1, §2, §3, §4

[1] = test system: M. catarrhalis ATCC 43627; experiment: Agar Dilution Method MIC, M. catarrhalis ATCC 43627; type: cell-based, Morexella catarrhalis; conditions: Moraxella catarrhalis, ATCC43627, Mueller Hinton Agar, 35° Celsius, 20 hours, read-out: Minimum Inhibitory Concentration (MIC in μg/ml)
Description: as §1, §2, §3, §4

[2] = test system: M. catarrhalis ATCC 43617; experiment: Agar Dilution Method MIC, M. catarrhalis ATCC 43617; type: cell-based, Morexella catarrhalis; conditions: Moraxella catarrhalis, ATCC43617, Mueller Hinton Agar, 35° Celsius, 20 hours, read-out: Minimum Inhibitory Concentration (MIC in μg/ml)
Description: as §1, §2, §3, §4

[3] = test system: M. catarrhalis ATCC 43628; experiment: Agar Dilution Method MIC, M. catarrhalis ATCC 43628; type: cell-based, Morexella catarrhalis; conditions: Moraxella catarrhalis, ATCC43628, Mueller Hinton Agar, 35° Celsius, 20 hours, read-out: Minimum Inhibitory Concentration (MIC in μg/ml)
Description: as §1, §2, §3, §4

MIC (S. aureus MRO 00013)	MIC (S. aureus MRO 00055)	MIC (S. epidermidis MRO 02046)	MIC (S. aureus MRO 00001)	MIC (S. aureus MRO 00003)	MIC (S. aureus MRO 00030)	MIC (S. aureus MRO 00048)	MIC (S. aureus MRO 00059)	MIC (E. fecalis MRO 04045)	MIC (E. faecalis ATCC 51299)	MIC (E. faecalis ATCC 29212)	MIC (S. aureus ATCC 29213)	MIC (S. aureus ATCC 43300)	MIC [1]	MIC [2]	MIC [3]	SMILES
0.5 µg/mL (≈ 0.968 µM)	0.5 µg/mL (≈ 0.968 µM)	0.25 µg/mL (≈ 0.484 µM)	0.25 µg/mL (≈ 0.484 µM)	0.5 µg/mL (≈ 0.968 µM)	0.5 µg/mL (≈ 0.968 µM)	0.25 µg/mL (≈ 0.484 µM)	0.5 µg/mL (≈ 0.968 µM)	0.25 µg/mL (≈ 0.484 µM)	0.25 µg/mL (≈ 0.484 µM)	0.25 µg/mL (≈ 0.484 µM)	0.5 µg/mL (≈ 0.968 µM)	0.25 µg/mL (≈ 0.484 µM)	2 µg/mL (≈ 3.87 µM)	2 µg/mL (≈ 3.87 µM)	2 µg/mL (≈ 3.87 µM)	CC(=S)NC[C@H]1CN(c2ccc(N3CCN(C(=O)Nc4ccc([N+](=O)[O-])cc4)CC3)c(F)c2)C(=O)O1 [Example 46]
0.5 µg/mL (≈ 0.939 µM)	0.5 µg/mL (≈ 0.939 µM)	0.25 µg/mL (≈ 0.469 µM)	0.25 µg/mL (≈ 0.469 µM)	0.5 µg/mL (≈ 0.939 µM)	0.5 µg/mL (≈ 0.939 µM)	0.25 µg/mL (≈ 0.469 µM)	0.5 µg/mL (≈ 0.939 µM)	0.25 µg/mL (≈ 0.469 µM)	0.25 µg/mL (≈ 0.469 µM)	0.25 µg/mL (≈ 0.469 µM)	0.5 µg/mL (≈ 0.939 µM)	0.25 µg/mL (≈ 0.469 µM)	–	–	–	CC(=S)NC[C@H]1CN(c2ccc(N3CCN(C(=S)Nc4ccc([N+](=O)[O-])cc4)CC3)c(F)c2)C(=O)O1 [Example 45, (S)-N-[3-[3-Fluoro-4-(4-(4-nitrophenyl)thiocarbamidopiperazin-1-yl)phenyl]-2-oxooxazolidin-5-methyl]thioacetamide]

Continued, compound first:

SMILES	MIC (S. aureus MRO 00013)	MIC (S. aureus MRO 00055)	MIC (S. epidermidis MRO 02046)	MIC (S. aureus MRO 00001)	MIC (S. aureus MRO 00003)	MIC (S. aureus MRO 00030)	MIC (S. aureus MRO 00048)	MIC (S. aureus MRO 00059)	MIC (E. fecalis MRO 04045)	MIC (E. faecalis ATCC 51299)	MIC (E. faecalis ATCC 29212)	MIC (S. aureus ATCC 29213)	MIC (S. aureus ATCC 43300)	MIC [1]	MIC [2]	MIC [3]
CC(=S)NC[C@H]1CN(c2ccc(N3CCN(C(=S)c4ccc(C)s4)CC3)c(F)c2)C(=O)O1 [Example 7, (S)-N-[3-[3-Fluoro-4-[4-(5-methylthiophen-2-ylthiocarbonyl)piperazin-1-yl]phenyl]-2-oxooxazolidin-5-ylmethyl]thioacetamide]	1 µg/mL (≈ 2.03 µM)	0.5 µg/mL (≈ 1.01 µM)	0.25 µg/mL (≈ 0.507 µM)	0.25 µg/mL (≈ 0.507 µM)	0.5 µg/mL (≈ 1.01 µM)	0.5 µg/mL (≈ 1.01 µM)	0.5 µg/mL (≈ 1.01 µM)	0.5 µg/mL (≈ 1.01 µM)	0.5 µg/mL (≈ 1.01 µM)	0.5 µg/mL (≈ 1.01 µM)	0.5 µg/mL (≈ 1.01 µM)	0.5 µg/mL (≈ 1.01 µM)	0.5 µg/mL (≈ 1.01 µM)	2 µg/mL (≈ 4.06 µM)	2 µg/mL (≈ 4.06 µM)	2 µg/mL (≈ 4.06 µM)
CC(=S)NC[C@H]1CN(c2ccc(N3CCN(C(=S)C4CC4)CC3)c(F)c2)C(=O)O1 [Example 6, (S)-N-[3-[3-Fluoro-4-[4-(cyclopropylthiocarbonyl)piperazin-1-yl]phenyl]-2-oxooxazolidin-5-ylmethyl]thioacetamide]	1 µg/mL (≈ 2.29 µM)	1 µg/mL (≈ 2.29 µM)	0.25 µg/mL (≈ 0.573 µM)	0.25 µg/mL (≈ 0.573 µM)	1 µg/mL (≈ 2.29 µM)	0.5 µg/mL (≈ 1.15 µM)	0.25 µg/mL (≈ 0.573 µM)	0.25 µg/mL (≈ 0.573 µM)	1 µg/mL (≈ 2.29 µM)	0.25 µg/mL (≈ 0.573 µM)	0.5 µg/mL (≈ 1.15 µM)	0.5 µg/mL (≈ 1.15 µM)	0.25 µg/mL (≈ 0.573 µM)	1 µg/mL (≈ 2.29 µM)	1 µg/mL (≈ 2.29 µM)	1 µg/mL (≈ 2.29 µM)
CC(=S)NC[C@H]1CN(c2ccc(N3CCN(C(=S)Cc4cccs4)CC3)c(F)c2)C(=O)O1 [Example 13, (S)-N-[3-[3-Fluoro-4-[4-(thiophen-2-ylthioacetyl)piperazin-1-yl]phenyl]-2-oxooxazolidin-5-ylmethyl]thioacetamide]	1 µg/mL (≈ 2.03 µM)	1 µg/mL (≈ 2.03 µM)	0.25 µg/mL (≈ 0.507 µM)	0.25 µg/mL (≈ 0.507 µM)	1 µg/mL (≈ 2.03 µM)	0.5 µg/mL (≈ 1.01 µM)	0.25 µg/mL (≈ 0.507 µM)	0.5 µg/mL (≈ 1.01 µM)	1 µg/mL (≈ 2.03 µM)	0.5 µg/mL (≈ 1.01 µM)	0.5 µg/mL (≈ 1.01 µM)	0.25 µg/mL (≈ 0.507 µM)	0.5 µg/mL (≈ 1.01 µM)	2 µg/mL (≈ 4.06 µM)	2 µg/mL (≈ 4.06 µM)	2 µg/mL (≈ 4.06 µM)

From patent US7217726B2, “Antibacterial agents” (Orchid Chemicals & Pharmaceuticals Limited, priority 2002, dated 2007)
